Measurements taken from patent US20070032477A1, “Pteridine derivatives useful for making pharmaceutical compositions” (priority 2003, published 2007).
pIC50: −log10 of the molar value. Structures can show the parent of a compound that is named as a salt.

Experiments:
[1] = tested on: mixed lymphocyte reaction (PBMC with allogeneic PBMC or Eppstein-Barr Virus-transformed human B cells as stimulator cells); assay: Mixed lymphocyte reaction (MLR) assay; type: cell-based; conditions: lowest concentration giving 50% suppression of the MLR; [3H]-thymidine
[2] = tested on: production of TNF-α by PBMC in response to stimulation by LPS; assay: TNF-α assay; type: cell-based, human; conditions: LPS 1 μg/ml, 72 hours, sandwich ELISA
In short: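 Cells were LPS-stimulated (1 μg/ml final) peripheral blood mononuclear cells at 10^6/ml, exposed 72 h at 37 °C to 0.1, 1 or 10 μM test compound.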

[3] = Plasma levels after oral administration in healthy mice; type: in vivo, C57BL/6 mice; conditions: 20 mg/kg once a day
Method: Each group of 6 mice received the indicated dose at time point 0 and were bled at 1, 3 and 5 hours after compound administration. Quantification was performed using a calibration curve of known compound concentrations spiked in control serum.
The plasma levels of the tested compound (example 176) was evaluated in C57BL/6 mice 8-10 weeks old Harlan, weighing 18.6-22.0 g after oral administration of 20, 10, 5 and 1 mg/kg, respectively (n=6 per dose). The tested compound (example 176) was dissolved in water to the appropriate concentration in order to deliver a constant gavage volume of 10 μl/g of body weight. Blood was collected by eye bleeding with heparinized capillaries at 1, 3, and 5 hours after dosing from each animal. The plasma fraction was immediately separated by centrifugation for 2 minutes at 12,000 g and stored at −80° C. until analysis. Each plasma sample was spiked with internal standard followed by the addition of 4 volumes of methanol. The samples were kept for 30 minutes on ice prior to centrifugation (10 minutes at 12,000 g) in order to remove precipitated proteins. The supernatant was analyzed for the presence of the tested compound (example 176), using LC/MS/MS. As standard for the bio-analysis, the tested compound (example 176) was diluted stepwise; each dilution was added to control plasma; additionally spiked with internal standard, giving rise to standard curves from 200 to 40,000 nM.

[4] = Mixed lymphocyte reaction (MLR) assay; type: cell-based, human; conditions: Homo sapiens, Lymphocyte; lowest concentration giving 50% suppression of the MLR; [3H]-thymidine
[5] = tested on: production of IL-1 β by PBMC in response to stimulation by LPS; assay: IL-1 β assay; type: cell-based, human; conditions: LPS 1 μg/ml, 72 hours, sandwich ELISA
Method: Peripheral blood mononuclear cells (herein referred as PBMC), in response to stimulation by lipopolysaccharide (LPS), a gram-negative bacterial endotoxin, produce various […], in particular human IL-1 β. Inhibition of the activation of PBMC can therefore be measured by the level of suppression of the production of IL-1 β by PBMC in response to stimulation by LPS.
Such inhibition measurement was performed as follows: PBMC were isolated from heparinized peripheral blood by density gradient centrifugation over Lymphoprep (commercially available from Nycomed, Norway). LPS was then added to the PMBC suspension in complete medium (10^6 cells/ml) at a final concentration of 1 μg/ml. The pteridine derivative to be tested was added at different concentrations (0.1 μM, 1 μM and 10 μM) and the cells were incubated at 37° C. for 72 hours in 5% CO2. The supernatants were collected, then IL-1 β concentrations were measured with an anti-IL-1 β antibody in a sandwich ELISA. The calorimetric reading of the ELISA was measured by a Multiskan RC plate reader (commercially available from ThermoLabsystems, Finland) at 450 nm (reference wavelength: 690 nm). Data analysis was performed with Ascent software 2.6. (also from ThermoLabsystems, Finland): a standard curve (recombinant human IL-1 β) was drawn and the amount (pg/ml) of each sample on the standard curve was determined.
The % suppression of human IL-1 β by the pteridine derivatives (drugs) of this invention was calculated using the formula: [formula]

[6] = tested on: CII induced rheumatoid arthritis in DBA mice; assay: Collagen type II induced model of rheumatoid arthritis; conditions: mice in vivo; example 17 up to 40 mg/kg/day; methotrexate 10 mg/kg/day, 3 times a week
Source text: Collagen type II (hereinafter referred as CII) induced experimental model of rheumatoid arthritis (hereinafter referred as RA) in DBA mice is widely accepted as the most relevant and predictive preclinical model for RA. In this model, DBA mice are immunized with CII, the collagen type mainly present in the joint structures, together with complete Freund Adjuvant in their tail. 2 to 3 weeks later, several of the immunized mice start to develop arthritis in the four footpaths. In order to further worsen the disease, mice are given a second CII boost at three weeks after the first immunisation, this time however in a footpath. Because the immune system is already immunised in these mice, this rapidly provokes a severe swelling of the injected footpath (named Delayed Type Hypersensitivity or DTH) which can be used as a measurement for T-cell activation. Within a few days after the booster, almost all untreated animals start developing symptoms of arthritis. RA development is scored from 0 to 16 (16 being severe clinical arthritis in all four footpaths). At the end of the study (3 weeks after the CII boost) antibody formation was determined against CII and histology performed on the footpaths.
The efficiency of the pteridine derivative of example 17 (administered in an amount of 20 mg/kg/day, started one day before the CII boost) was explored in this CII-model.

SMILES | pIC50 [4] | pIC50 ([2]; Homo sapiens) | also measured
CCCCCC(=O)N1CCN(c2nc(N)nc3ncc(-c4ccc(OC)c(OC)c4)nc23)CC1 [Example 10, 2-amino-4-[(N-hexanoyl)-piperazin-1-yl]-6-(3,4-dimethoxyphenyl)pteridine] | – | – | pIC50 [1]: 7.00; pIC50 [2]: 7.15; serum concentrations versus in vitro IC50 for IL-1β production or T cell activation [3]: insufficient to inhibit IL-1β production or T cell activation
COc1ccc(-c2cnc3nc(N)nc(N4CCN(CCC5OCCO5)CC4)c3n2)cc1OC [Example 164, 2-amino-6-(3,4-dimethoxyphenyl)-4-(4-(2-(1,3)-dioxolan-2-yl-ethyl)-piperazin-1-yl)pteridine] | 5.64 | 6.70 | –
COc1ccc(-c2cnc3nc(N)nc(N4CCN(CC(=O)Nc5nccs5)CC4)c3n2)cc1OC [Example 187, 2-amino-4-[2-(piperazin-1-yl)-acetic acid N-(2-thiazolyl)-amide]-6-(3,4-dimethoxyphenyl)pteridine] | – | – | pIC50 [1]: 7.00; pIC50 [2]: 7.22; pIC50 [5]: 5.62
CN(Cc1cnc2nc(N)nc(N)c2n1)c1ccc(C(=O)N[C@@H](CCC(=O)O)C(=O)O)cc1 [methotrexate, reference compound] | – | – | mortality or cytotoxic effect on increasing the dose [6]: death of all animals

Continued by rising pIC50 [4], values first:

pIC50 [4] | SMILES | pIC50 ([2]; Homo sapiens) | also measured
5.08 | COc1ccc(-c2cnc3nc(N4CCCCC4)nc(N)c3n2)cc1OC [Example 87, 4-amino-2-piperidino-6-(3,4-dimethoxyphenyl)pteridine] | – | –
5.09 | CCCN(CCC)CCN1CCN(c2nc(N)nc3ncc(-c4ccc(OC)c(OC)c4)nc23)CC1 [Example 183, 2-amino-6-(3,4-dimethoxyphenyl)-4-(4-(2-dipropylaminoethyl)-piperazin-1-yl)pteridine trihydrochloride salt] | 5.92 | –
5.11 | COc1ccc(-c2cnc3nc(N)nc(N4CCN(CCN5CCCCC5)CC4)c3n2)cc1OC [Example 184, 2-amino-6-(3,4-dimethoxyphenyl)-4-(4-(2-piperidin-1-yl-ethyl)-piperazin-1-yl)pteridine trihydrochloride salt] | 6.15 | –
5.33 | COc1ccc(-c2cnc3nc(NCc4cccs4)nc(N)c3n2)cc1OC [Example 80, 2-(2-thienylmethylamino)-4-amino-6-(3,4-dimethoxyphenyl)pteridine] | – | –
5.49 | COc1ccc(-c2cnc3nc(NCc4ccccc4)nc(N)c3n2)cc1OC [Example 82, 2-benzylamino-4-amino-6-(3,4-dimethoxyphenyl)pteridine] | – | –
5.54 | CCOCCN1CCN(c2nc(N)nc3ncc(-c4ccc(OC)c(OC)c4)nc23)CC1 [Example 165, 2-amino-6-(3,4-dimethoxyphenyl)-4-(4-(2-ethoxyethyl)-piperazin-1-yl)pteridine] | 6.52 | –
6.52 | COc1ccc(-c2cnc3nc(N)nc(N4CCC(C(=O)CN5CCNCC5)C4)c3n2)cc1OC (centres unmarked) [Example 131, 2-amino-4-(4-[2-(piperazin-1-yl)-acetyl]-pyrrolidino)-6-(3,4-dimethoxy-phenyl)pteridine] | 5.72 | –
